Active and inactive are the calls of the source. The rule behind the calls is not given here.
Assays:
Trypanosoma cruzi [1] = experiment: Antitrypanosomal activity against bloodstream trypomastigote form of Trypanosoma cruzi NINOA isolated from infected mouse at the peak of parasitemia assessed as reduction in number of live parasites at 5 to 50 ug/ml after 24 hrs
Trypanosoma cruzi [2] = experiment: Antitrypanosomal activity against bloodstream trypomastigote form of Trypanosoma cruzi NINOA isolated from infected mouse at the peak of parasitemia assessed as reduction in number of live parasites at 5 to 50 ug/ml after 24 hrs; format: functional, organism-based
Trypanosoma cruzi [3] = experiment: Antitrypanosomal activity against bloodstream trypomastigote form of Trypanosoma cruzi NINOA isolated from infected mouse at the peak of parasitemia assessed as reduction in number of live parasites at 161 uM after 24 hrs; format: functional; parameters: scale not given: the % may be the effect or the level left
Trypanosoma cruzi [4] = experiment: Antitrypanosomal activity against bloodstream trypomastigote form of Trypanosoma cruzi NINOA isolated from infected mouse at the peak of parasitemia assessed as reduction in number of live parasites at 178 uM after 24 hrs; format: functional, organism-based
Trypanosoma cruzi [5] = experiment: Antitrypanosomal activity against bloodstream trypomastigote form of Trypanosoma cruzi NINOA isolated from infected mouse at the peak of parasitemia assessed as reduction in number of live parasites at 18 to 36 uM after 24 hrs; format: functional, organism-based

`O=C(Cn1ccnc1[N+](=O)[O-])NCc1ccccc1` was tested, and the Activity (Trypanosoma cruzi [1]) was “Active”.

In the case of `O=C(c1ccccc1)c1[nH]c(=O)c2ccccc2c1O`, the Activity (Trypanosoma cruzi [2]) is reported as “inactive”.

`O=C(c1cccc([N+](=O)[O-])c1)c1[nH]c(=O)c2ccccc2c1O` showed an Activity (Trypanosoma cruzi [3]) of 47%.

For `Nc1cccc(C(=O)c2[nH]c(=O)c3ccccc3c2O)c1`, the Activity (Trypanosoma cruzi [4]) was “inactive”, the Activity (Trypanosoma cruzi [5]) was “Active” and the Activity (Trypanosoma cruzi [1]) was “Active”.

From ChEMBL document CHEMBL2203182, “Identification of benzoylisoquinolines as potential anti-Chagas agents” (2012)
